Work on `CC(=O)OCC1=CC2CC(=O)C3=COC(OC4OC(CO)C(O)C(O)C4O)C1C32` (centres undefined) yielded a melting point of 128 °C.

Work on `Nc1ncnc2c1ncn2C1OC(COP(=O)(O)O)C(O)C1O` (centres undefined) yielded a melting point of 213 °C.

Work on `Cc1n[nH]c(C)c1Oc1ccc(Cl)cc1` yielded a melting point of 139 to 141 °C.

Compound `Nc1ccc2c(c1)CS(=O)(=O)C2` has a melting point of 186 to 187 °C.

With `O=C(c1ccccc1)c1cc(C(=O)c2ccccc2)c([N+](=O)[O-])cc1[N+](=O)[O-]` the melting point was 174 °C.

With `CCCCC(=O)OCC(=O)C1(O)Cc2c(O)c3c(c(O)c2C(OC2CC(NC(=O)C(F)(F)F)C(O)C(C)O2)C1)C(=O)c1c(OC)cccc1C3=O` (centres undefined) the melting point was 136 °C.

With `Nc1ccc(-c2ccccc2)cn1` the melting point was 135 °C.

`CCOc1nc(F)cc2nc(S(=O)(=O)Nc3c(Cl)cccc3C(=O)OC)nn12` showed a melting point of 217 °C.

For `CC(=O)Oc1ccc2c(c1)CCC1C2CCC2(C)C(=O)C(OC(C)=O)CC12` (centres undefined), the melting point was 180 °C.

With `CCCCCCCCN(C)C` the melting point was -57 °C.

Work on `N#CCC(=O)c1cccs1` yielded a melting point of 112 °C.

With `CN1N=C2c3ccccc3CCC2C1c1ccc(Cl)cc1` (centres undefined) the melting point was 199 to 201 °C.

`CC(C)(C)OC(=O)NCC1CCNCC1` gave a melting point of 106 to 108 °C.

Work on `CC1COCc2cc3c(cc21)C(C)(C)C(C)C3(C)C` (centres undefined) yielded a melting point of -5 °C.

With `N#Cc1cc(F)cc(Br)c1` the melting point was 43 to 46 °C.

`Cc1oc(S(=O)(=O)N(C)C)cc1C(=O)O` showed a melting point of 169 °C.

`Clc1cc(Cl)c2c(c1)Oc1cc(Cl)c(Cl)cc1O2` showed a melting point of 194 °C.

`O=c1cc[nH]c(=O)o1` showed a melting point of 156 °C.

For `CCC(Br)=CBr`, the melting point was -49.5 °C.

With `CN(C(=S)Cl)c1ccc(F)cc1` the melting point was 92 to 94 °C.

Compound `NC(=O)c1c(N)cccc1F` has a melting point of 115 to 118 °C.

Compound `CCOC(=O)C(C)Oc1ccc(Oc2cnc3cc(Cl)ccc3n2)cc1` (centres undefined) has a melting point of 92 °C.

For `O=C(O)C1c2ccccc2C(=O)N(Cc2ccc(F)cc2)C1c1ccncc1` (centres undefined), the melting point was 243 to 245 °C.

In the case of `Cc1ccc(C(C)(C)C)cc1S`, the melting point is reported as -10 °C.

`CCCCCn1c(O)nnc1S` showed a melting point of 146 to 149 °C.

With `Cc1ccc(P(=S)(c2ccc(C)cc2)c2ccc(C)cc2)cc1` the melting point was 185 to 186 °C.

For `CCOC(=O)c1c[nH]c(S)n1`, the melting point was 191 to 193 °C.

Compound `CCC(N)C(=O)O` (centres undefined) has a melting point of 304 °C.

`CC(C)Nc1ccc(C(F)(F)F)cc1[N+](=O)[O-]` showed a melting point of 103 to 105 °C.

`CCCCC(O)C(C)C` (centres undefined) showed a melting point of -85 °C.

`O=[N+]([O-])c1cccc2scc(Br)c12` showed a melting point of 120 to 122 °C.

Work on `O=C(O)c1cc(-c2ccc(Cl)cc2)oc1C(F)(F)F` yielded a melting point of 192 to 193 °C.

With `CCc1c(C)ccc2c1CCC1C2CCC2CC(O)CCC21C` (centres undefined) the melting point was 172 °C.

`O=C1CNCCCNCC(=O)NCCCN1` gave a melting point of 141 °C.

Work on `CC(=O)CC(=O)CC(C)=O` yielded a melting point of 49 °C.

In the case of `CCOC(=O)C(=O)Nc1cc(C(F)(F)F)cc(C(F)(F)F)c1`, the melting point is reported as 90 to 92 °C.

For `CCOC(=O)c1sc(SC)c2c1CCCC2O` (centres undefined), the melting point was 119 to 122 °C.

Work on `Cc1ccc(C(C)C)c(O)c1C(=O)O` yielded a melting point of 127 °C.

Compound `NC(=S)c1ccccc1F` has a melting point of 80 to 84 °C.

Work on `COc1ccc(C2CNC(=O)C2)cc1OC1CCCC1` (centres undefined) yielded a melting point of 127 to 133 °C.

`SC1CCCCC1` showed a melting point of -30 °C.

`NS(=O)(=O)c1ccc(N2CCCCS2(=O)=O)cc1` gave a melting point of 180 °C.

Compound `Cc1nsc(N)n1` has a melting point of 202 to 209 °C.

`C/C(Cl)=C/C(=O)O` gave a melting point of 61 °C.

Compound `C=C(C)CCCCCCCC` has a melting point of -51 °C.

For `OCC1OC(Oc2ccc(O)cc2)C(O)C(O)C1O` (centres undefined), the melting point was 200 °C.

For `CNC(=O)Oc1cc(C)c(N(C)C)c(C)c1`, the melting point was 85 °C.

Compound `CCSc1nnc(NC(=O)C(C(F)(F)F)C(F)(F)F)s1` has a melting point of 159 °C.

Compound `Cc1cccc(Cl)c1C#N` has a melting point of 81 °C.

In the case of `Cc1c(C)c(CCl)c(C)c(C)c1CCl`, the melting point is reported as 194 °C.

With `Clc1c(Cl)c(Cl)c2c(oc3ccccc32)c1Cl` the melting point was 169 °C.

In the case of `COc1ccc2nnc(-c3ccc(C(F)(F)F)cc3)n2n1`, the melting point is reported as 142 °C.

`CC(C)(C)C(CCC(=O)O)CC(=O)O` (centres undefined) gave a melting point of 114 to 117 °C.

With `Cc1ccc(C(=O)Cl)o1` the melting point was 29 °C.

Work on `CC12CCC3C(CCC4CC(OC=O)CCC43C)C1CC=C2C#Cc1ccccc1` (centres undefined) yielded a melting point of 179 to 180 °C.

Work on `CSc1nc(Cl)c(-c2ccccc2)c(Cl)n1` yielded a melting point of 114 °C.

`BrCC(Br)(Br)Br` showed a melting point of 0 °C.

`c1ccc(-c2cc3c(ccc4nonc43)nn2)cc1` gave a melting point of 201 to 203 °C.

`N#Cc1cnc2[nH]ccc2c1` showed a melting point of 228 °C.

`CCCCc1ccccc1O` showed a melting point of -20 °C.

Work on `COc1ccc([P+]2([S-])Nn3c(nnc3C(F)(F)F)S2)cc1` (centres undefined) yielded a melting point of 211 °C.

For `Nc1ccccc1/C=C/c1ccccc1`, the melting point was 106 °C.

With `O=Cc1cccc2c(Br)ccc([N+](=O)[O-])c12` the melting point was 135 °C.

`Cc1c(C)c(C)c(S(=O)(=O)Cl)c(C)c1C` showed a melting point of 80 °C.

`C=C[Si](C)(C)O[Si](C)(C)C=C` gave a melting point of -99.7 °C.

In the case of `O=C(Cl)c1sccc1Cl`, the melting point is reported as 45 to 46 °C.

For `NC(=S)Cn1cnc(Cl)c1Cl`, the melting point was 204 to 207 °C.

`Fc1ccc(-c2ccc(F)cc2)cc1` gave a melting point of 94.5 °C.

For `O=C1C=C2CC3(O)COc4c(ccc(O)c4O)C3=C2C=C1O` (centres undefined), the melting point was 180 °C.

For `c1ccc(N=Nc2ccc(/N=N/c3ccc(N=Nc4ccccc4)cc3)cc2)cc1`, the melting point was 233 °C.

`O=C(C(Cl)Cl)C(Cl)(Cl)Cl` gave a melting point of 2.1 °C.

In the case of `Cn1c(N)c(C=O)c(=O)n(C)c1=O`, the melting point is reported as 199 to 201 °C.

Work on `C=CC1CN2CCC1CC2C(=O)c1ccnc2ccc(OC)cc12` (centres undefined) yielded a melting point of 108 °C.

`OCCN(CCO)c1ccc(N=Nc2ccccc2)cc1` showed a melting point of 134 °C.

Compound `COc1ccc2ccc(=O)oc2c1CC=C(C)C` has a melting point of 83.5 °C.

`COc1cc(C=CC(=O)O)ccc1OC(C)=O` showed a melting point of 195 °C.

`CS(=O)CCC(N)C(=O)O` (racemic) showed a melting point of 232 to 234 °C.

Work on `Cc1cccc(C)c1C(N)=O` yielded a melting point of 136 to 138 °C.

For `COC(=O)Cn1nnc(N2CCOCC2)n1`, the melting point was 100 to 103 °C.

Compound `COc1ccc2c(c1)CCC(=Cc1ccccc1)C2=O` has a melting point of 75 to 75.5 °C.

Compound `Cc1cccc(N/N=C(\C#N)c2nc(-c3ccc(Cl)cc3)cs2)c1C` has a melting point of 196 °C.

For `Cc1cccc(O[Si]23OCCN(CCO2)CCO3)c1`, the melting point was 166 °C.

With `Cc1ccc(O)c(I)n1` the melting point was 195 to 201 °C.

Compound `CC12CCC(C(CO)C1=O)C2(C)C` (centres undefined) has a melting point of 138 °C.

Work on `Cc1nn(C)c2sc(C(=O)Cl)cc12` yielded a melting point of 165 to 167 °C.

`NC(CCc1ccccc1)CC(=O)O` (centres undefined) gave a melting point of 223 to 227 °C.

In the case of `Nc1ccc(O)cc1[N+](=O)[O-]`, the melting point is reported as 151 °C.

`O=Cc1cc2c(cc1Cl)OCO2` showed a melting point of 116 °C.

With `CC(=O)OC1CC2CCC1(C)C2(C)C` (centres undefined) the melting point was 29 °C.

`CCCCCCC#CC(=O)O` gave a melting point of -8 °C.

`O=C1OC2(c3ccc(Cl)cc3Oc3cc(Cl)ccc32)c2ccccc21` gave a melting point of 253 to 255 °C.

`CSCCC(NS(=O)(=O)c1ccc(C)cc1)C(=O)O` (racemic) gave a melting point of 105 to 108 °C.

Compound `Cn1cc2cc([N+](=O)[O-])ccc2n1` has a melting point of 129 °C.

`CSc1sc(C(=O)O)c(-c2cccc(Cl)c2)c1C#N` showed a melting point of 209 to 211 °C.

For `Cc1ccccc1/C=C(\C#N)c1nc2ccccc2s1`, the melting point was 148 °C.

With `O=C1OC2(Cc3ccccc31)C(=O)c1ccccc1C2=O` the melting point was 205 °C.

With `CSc1nn(-c2ccccc2)cc1C#N` the melting point was 106 to 108 °C.

`CC(C(=O)O)=C(C)c1cccc(C)c1` gave a melting point of 163 °C.

`NC1CCC(c2ccccc2)CC1CO` (centres undefined) showed a melting point of 116 to 122 °C.

`CCOCCCN` gave a melting point of -70 °C.

`CN=C1CN(O)C(c2ccccc2)=c2cc(Cl)ccc2=N1` gave a melting point of 236 °C.

With `Nc1cnccc1I` the melting point was 61 °C.

Work on `CC(C)C1=CC2=C(CC1)C1(C)CCCC(C)(C(=O)O)C1CC2` (centres undefined) yielded a melting point of 164 °C.

Work on `O=Cc1cc(C(=O)O)ccc1F` yielded a melting point of 152 to 153 °C.

Compound `Nc1c(Cl)c(Cl)nc(C(=O)O)c1Cl` has a melting point of 218 °C.

Work on `O=C(Cl)C(=O)Cl` yielded a melting point of -12 °C.

Work on `CC(=O)CC(=O)Nc1ccc(-c2ccc(NC(=O)CC(C)=O)c(C)c2)cc1C` yielded a melting point of 212 °C.

For `CCCCC1CO1` (centres undefined), the melting point was 94 °C.

`CSC(SC)SC` gave a melting point of 16 °C.

For `CCCCCCNC(=O)n1cc(F)c(=O)[nH]c1=O`, the melting point was 110 °C.

With `CSc1nnc(C(C)(C)C)c(=O)n1N` the melting point was 126 °C.

In the case of `O=C(c1cccs1)c1coc(-c2ccc(Cl)cc2)c1S(=O)(=O)c1ccccc1`, the melting point is reported as 115 °C.

For `CCOC(=O)C(=O)C=P(c1ccccc1)(c1ccccc1)c1ccccc1`, the melting point was 176 °C.

In the case of `CCOC(=O)CC1NCCNC1=O` (centres undefined), the melting point is reported as 102 to 105 °C.

`Cc1cc(C(=O)O)cc(C)c1[N+](=O)[O-]` showed a melting point of 224 °C.

`CCCCCCCCCCNCCCCCCCCCC` gave a melting point of 40 °C.

Work on `O=C(O)c1ccc2cc[nH]c2c1` yielded a melting point of 248 to 254 °C.

In the case of `CC(=O)c1c(C)n(O)c2ccc3nonc3c12`, the melting point is reported as 301 to 303 °C.

Compound `NN=C(N)C(S)=NN` has a melting point of 150 °C.

Work on `Cc1c(-c2ccccc2)oc2c(C(=O)O)cccc2c1=O` yielded a melting point of 235 °C.

For `O=C(O)CSc1cccc2cccc(Cl)c12`, the melting point was 156 °C.

Work on `O=C1CCC(NC(=O)OCc2ccccc2)CC1` yielded a melting point of 82 °C.

Compound `COc1ccc(CCN)cc1OC` has a melting point of 12 to 15 °C.

Compound `CCOC(=O)c1c(N)sc2c1CCN(Cc1ccccc1)C2` has a melting point of 112 °C.

Compound `c1ccc(/N=N/c2ccccc2NNc2ccccc2)cc1` has a melting point of 99 °C.

In the case of `Cc1noc(-c2ccccc2CO)n1`, the melting point is reported as 91 to 92 °C.

For `CCC(F)(F)C(=O)O`, the melting point was 8 °C.

With `COC(=O)c1c(C)noc1-c1cc(C)on1` the melting point was 84 to 86 °C.

For `CC(=O)OC1(C(C)=O)CCC2(C)C(CCC3C4CCC(O)C4(C)CCC32)C1` (centres undefined), the melting point was 193 °C.

Work on `COc1ccccc1OC(C)=O` yielded a melting point of 31.5 °C.

In the case of `O=C(O)c1ccc(Br)c(C(=O)O)c1`, the melting point is reported as 297 to 299 °C.

`Cc1c(C)c(C)c(Br)c(Br)c1C` showed a melting point of 72 °C.

Compound `CC(=O)Oc1ccc([N+](=O)[O-])cc1` has a melting point of 76 to 79 °C.

`OCc1csc(N2CCOCC2)n1` showed a melting point of 118 to 120 °C.

— a melting point compilation (Tetko et al.)
